Assay results reported in patent publication US20230019491A1, “PYRIMIDINE TBK/IKKe INHIBITOR COMPOUNDS AND USES THEREOF” (Merck Patent GmbH, priority 2017, published 2023).
Counter-ions that a name gives are not always drawn.

Tests used:
[1] = target: T1, TBK1 (Homo sapiens, UniProt Q9UHD2); experiment: TBK biochemical assay; conditions: 10 point 1:4 dose response, 30 uM top concentration, 90 min at 25° C., LabChip EZ Reader II; read-out: TBK1_IC50
T1 sequence (Q9UHD2 1-729): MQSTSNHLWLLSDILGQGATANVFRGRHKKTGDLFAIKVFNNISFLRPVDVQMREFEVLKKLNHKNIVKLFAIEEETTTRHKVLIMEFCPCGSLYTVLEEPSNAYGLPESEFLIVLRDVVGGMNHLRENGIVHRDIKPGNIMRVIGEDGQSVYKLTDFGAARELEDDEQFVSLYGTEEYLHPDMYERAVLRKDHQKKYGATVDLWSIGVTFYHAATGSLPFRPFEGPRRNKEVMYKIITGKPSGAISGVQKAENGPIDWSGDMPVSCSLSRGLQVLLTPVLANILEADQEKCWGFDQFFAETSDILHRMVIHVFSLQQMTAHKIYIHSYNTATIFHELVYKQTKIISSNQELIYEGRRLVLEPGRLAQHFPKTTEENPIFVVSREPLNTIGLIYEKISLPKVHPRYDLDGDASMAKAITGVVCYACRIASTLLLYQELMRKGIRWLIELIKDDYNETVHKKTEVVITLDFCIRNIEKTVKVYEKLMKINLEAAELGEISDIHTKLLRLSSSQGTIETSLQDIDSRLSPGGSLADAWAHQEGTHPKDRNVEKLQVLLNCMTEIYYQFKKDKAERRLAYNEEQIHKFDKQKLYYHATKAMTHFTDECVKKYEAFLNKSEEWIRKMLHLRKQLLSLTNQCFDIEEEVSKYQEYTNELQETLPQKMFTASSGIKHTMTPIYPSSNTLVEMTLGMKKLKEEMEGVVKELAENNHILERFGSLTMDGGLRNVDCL
Description: (§1) Test compounds were transferred into Labcyte polypropylene 384 well plates (P055-25) and diluted to 3 mM using DMSO. […] 100 uM of a reference compound (1 uM final high concentration). Backfilling was performed if necessary so that all wells contain 1% DMSO final:
(§2) add 75 nl DMSO/well into columns 1, 2 and 24 using Labcyte Echo. add 75 nl 1.0 mM staurosporine/well into column 23 using Labcyte Echo ([…]) add 4.5 ul enzyme/well using multidrop dispenser add 3 ul substrate/well using multidrop dispenser incubate at 25° C. in Heidolph incubator for 90 min. add 7.5 ul 2× stop buffer using multidrop dispenser read on labchip ez reader II using TBK1.job
(§3) Raw data files were opened in the Caliper LabChip Reviewer program (Version 3.0.265.0 SP2) and peak assignments were adjusted to reflect “substrate first” with the software's post-run analysis options. A spline-fit baseline was applied using the software's analysis algorithm.

[2] = target: T2, IKKε (Homo sapiens, UniProt Q14164); experiment: IKKε biochemical assay; conditions: 10 point 1:4 dose response, 30 uM top concentration, 90 min at 25° C., LabChip EZ Reader II; read-out: IKKε_IC50
T2 sequence (Q14164 1-716): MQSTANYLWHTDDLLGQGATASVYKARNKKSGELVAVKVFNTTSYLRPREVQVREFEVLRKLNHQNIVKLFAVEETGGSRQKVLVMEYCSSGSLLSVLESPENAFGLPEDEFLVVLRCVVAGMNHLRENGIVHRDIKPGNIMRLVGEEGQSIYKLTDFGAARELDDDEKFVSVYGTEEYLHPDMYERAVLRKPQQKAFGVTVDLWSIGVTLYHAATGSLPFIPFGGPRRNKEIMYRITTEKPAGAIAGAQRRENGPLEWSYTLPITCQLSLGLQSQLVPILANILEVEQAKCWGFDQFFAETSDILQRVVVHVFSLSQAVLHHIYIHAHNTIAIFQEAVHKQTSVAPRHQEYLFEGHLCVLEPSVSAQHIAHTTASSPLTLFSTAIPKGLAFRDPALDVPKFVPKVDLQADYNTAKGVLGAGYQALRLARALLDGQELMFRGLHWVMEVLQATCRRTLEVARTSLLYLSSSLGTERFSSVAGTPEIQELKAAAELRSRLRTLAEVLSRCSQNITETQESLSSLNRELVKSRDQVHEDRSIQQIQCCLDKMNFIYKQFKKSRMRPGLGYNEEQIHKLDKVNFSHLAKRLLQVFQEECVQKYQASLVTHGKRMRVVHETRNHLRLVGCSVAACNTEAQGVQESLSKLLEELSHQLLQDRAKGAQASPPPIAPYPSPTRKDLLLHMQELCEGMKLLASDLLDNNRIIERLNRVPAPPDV
Description: as §1
as §2, with “C.” for “C. in Heidolph incubator”, “buffer” for “buffer using multidrop dispenser”, “IKKε.” for “TBK1.job”
as §3

Compound | IC50 [1] | IC50 [2]
COc1nc(Nc2nccc(-c3ccc(OC4CCN(C(=O)[C@H](O)C(C)C)CC4(F)F)c(C#N)c3)n2)ccc1C1CCN(C2COC2)CC1 (stereo partly drawn) [Example 238, 2-[3,3-Difluoro-1-((R)-2-hydroxy-3-methyl-butyryl)-piperidin-4-yloxy]-5-[2-(2-methoxy-1′-oxetan-3-yl-1′,2′,3′,4′,5′,6′-hexahydro-[3,4′]bipyridinyl-6-ylamino)-pyrimidin-4-yl]-benzonitrile] | 100 to 1000 nM | 100 to 1000 nM
COc1nc(Nc2nccc(-c3ccc(OC4CCN(C(=O)[C@@H](C)O)CC4(F)F)c(C#N)c3)n2)ccc1N1CCN(C)C[C@@H]1C (stereo partly drawn) [Example 111, 2-[3,3-Difluoro-1-((R)-2-hydroxy-propionyl)-piperidin-4-yloxy]-5-{2-[5-((S)-2,4-dimethyl-piperazin-1-yl)-6-methoxy-pyridin-2-ylamino]-pyrimidin-4-yl}-benzonitrile] | < 100 nM | < 100 nM
COc1cc(C(=O)N(C)C)cnc1Nc1nccc(-c2ccc(NC3CCOCC3)c(C#N)c2)n1 [Example 60, 6-[(4-[3-cyano-4-[(oxan-4-yl)amino]phenyl]pyrimidin-2-yl)amino]-5-methoxy-N,N-dimethylpyridine-3-carboxamide] | > 5000 nM | > 5000 nM
COc1nc(Nc2nccc(-c3ccc(OC4CCOCC4)c(C#N)c3)n2)ccc1C(=O)N1CC2CCC1CN2C (stereo not drawn) [Example 18, 5-(2-[[6-methoxy-5-([5-methyl-2,5-diazabicyclo[2.2.2]octan-2-yl]carbonyl)pyridin-2-yl]amino]pyrimidin-4-yl)-2-(oxan-4-yloxy)benzonitrile] | < 100 nM | < 100 nM
COc1nc(Nc2nccc(-c3ccc(O[C@H]4CCN(C(=O)[C@H](C)O)CC4(F)F)c(C#N)c3)n2)ccc1N1CCN(C2COC2)[C@@H](C)C1 [Example 247, 2 2-[(S)-3,3-Difluoro-1-((S)-2-hydroxy-propionyl)-piperidin-4-yloxy]-5-{2-[6-methoxy-5-((S)-3-methyl-4-oxetan-3-yl-piperazin-1-yl)-pyridin-2-ylamino]-pyrimidin-4-yl}-benzonitrile] | < 100 nM | < 100 nM
C[C@@H](O)C(=O)N1CCC(Oc2ccc(-c3ccnc(Nc4ccc(N5CCOCC5)cc4)n3)cc2C#N)C(F)(F)C1 (stereo partly drawn) [Example 215, 2-([3,3-difluoro-1-[(2R)-2-hydroxypropanoyl]piperidin-4-yl]oxy)-5-(2-[[4-(morpholin-4-yl)phenyl]amino]pyrimidin-4-yl)benzonitrile] | < 100 nM | < 100 nM
COc1nc(Nc2nccc(-c3ccc(O[C@@H]4CCN(C(=O)[C@@H](C)O)C[C@H]4F)c(C#N)c3)n2)ccc1C1CCN(C2COC2)CC1 [Example 193, 2-[(3R,4R)-3-Fluoro-1-((R)-2-hydroxy-propionyl)-piperidin-4-yloxy]-5-[2-(2-methoxy-1′-oxetan-3-yl-1′,2′,3′,4′,5′,6′-hexahydro-[3,4′]bipyridinyl-6-ylamino)-pyrimidin-4-yl]-benzonitrile] | 100 to 1000 nM | 100 to 1000 nM
COc1nc(Nc2nccc(-c3ccc(O[C@H]4CCNC[C@H]4F)c(C#N)c3)n2)ccc1N1CCN(C)CC1 [Example 95] | < 100 nM | < 100 nM
COc1nc(Nc2nccc(-c3ccc(OC4CCOCC4)c(C#N)c3)n2)ccc1C1CCN(C)CC1 [Example 40, 5-(2-[[6-methoxy-5-(1-methylpiperidin-4-yl)pyridin-2-yl]amino]pyrimidin-4-yl)-2-(oxan-4-yloxy)benzonitrile] | < 100 nM | < 100 nM
COc1cc(Nc2nccc(-c3ccc(O[C@@H]4CCN(C(=O)[C@@H](C)O)CC4(F)F)c(C#N)c3)n2)ccn1 [Example 231, 2-((R)-3,3-difluoro-1-((R)-2-hydroxypropanoyl)piperidin-4-yloxy)-5-(2-(2-methoxypyridin-4-ylamino)pyrimidin-4-yl)benzonitrile] | < 100 nM | < 100 nM
CC(O)C(=O)N1CCC(Oc2ccc(-c3ccnc(Nc4ccc(C5CCN(C)CC5)cc4)n3)cc2C#N)C(F)(F)C1 (stereo not drawn) [Example 149, 2-[[3,3-difluoro-1-(2-hydroxypropanoyl)piperidin-4-yl]oxy]-5-(2-[[4-(1-methylpiperidin-4-yl)phenyl]amino]pyrimidin-4-yl)benzonitrile] | < 100 nM | < 100 nM
COc1nc(C(=O)N(C)C)ccc1Nc1nccc(-c2ccc(OC3CCOCC3)c(C#N)c2)n1 [Example 48, 5-([4-[3-cyano-4-(oxan-4-yloxy)phenyl]pyrimidin-2-yl]amino)-6-methoxy-N,N-dimethylpyridine-2-carboxamide] | < 100 nM | < 100 nM
COc1nc(Nc2nccc(-c3ccc(O[C@@H]4CCN(C(=O)[C@@H](C)O)C[C@@H]4F)c(C#N)c3)n2)ccc1C1CCN(C2COC2)CC1 [Example 195, 2-[(3S,4R)-3-Fluoro-1-((R)-2-hydroxy-propionyl)-piperidin-4-yloxy]-5-[2-(2-methoxy-1′-oxetan-3-yl-1′,2′,3′,4′,5′,6′-hexahydro-[3,4′]bipyridinyl-6-ylamino)-pyrimidin-4-yl]-benzonitrile] | 100 to 1000 nM | 100 to 1000 nM
C[C@H](O)C(=O)N1CCC(Oc2ccc(-c3ccnc(Nc4cccnc4)n3)cc2C#N)C(F)(F)C1 (stereo partly drawn) [Example 205] | < 100 nM | < 100 nM
COc1cc(Nc2nccc(-c3ccc(OC4CCOCC4)c(C#N)c3)n2)cnc1C1CCN(C)CC1 [Example 57, 5-(2-[[5-methoxy-6-(1-methylpiperidin-4-yl)pyridin-3-yl]amino]pyrimidin-4-yl)-2-(oxan-4-yloxy)benzonitrile] | < 100 nM | < 100 nM
COc1nc(Nc2ncc(F)c(-c3ccc(OC4CCN(C(=O)[C@H](C)O)CC4(F)F)c(C#N)c3)n2)ccc1N1CCN(C2COC2)CC1 (stereo partly drawn) [Example 292, 2-({3,3-difluoro-1-[(2S)-2-hydroxypropanoyl]piperidin-4-yl}oxy)-5-[5-fluoro-2-({6-methoxy-5-[4-(oxetan-3-yl)piperazin-1-yl]pyridin-2-yl}amino)pyrimidin-4-yl]benzonitrile] | < 100 nM | < 100 nM
N#Cc1cc(-c2ccnc(Nc3ccc(C4CCN(C5COC5)C4)cc3)n2)ccc1OC1CCNCC1(F)F (stereo not drawn) [Example 155, 2-(3,3-Difluoro-piperidin-4-yloxy)-5-{2-[4-(1-oxetan-3-yl-pyrrolidin-3-yl)-phenylamino]-pyrimidin-4-yl}-benzonitrile hydrochloride] | < 100 nM | < 100 nM
C[C@@H](O)C(=O)N1CCC(Oc2ccc(-c3ccnc(Nc4ccc(C5CCN(C)CC5)cc4)n3)cc2C#N)C(F)(F)C1 (stereo partly drawn) [Example 145, 2-([3,3-difluoro-1-[(2R)-2-hydroxypropanoyl]piperidin-4-yl]oxy)-5-(2-[[4-(1-methylpiperidin-4-yl)phenyl]amino]pyrimidin-4-yl)benzonitrile] | < 100 nM | < 100 nM
